# pIC50: −log10 of the molar value.
# Tests used:
# human TLR9 = human TLR9 (Homo sapiens (Human), UniProt Q9NR96); test: TLR9 inhibition reporter assay (HEK-Blue SEAP); conditions: read-out: TLR9 IC50; HEK-Blue human TLR9 cells, ODN2006 5 nM;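 further: SEAP driven by an IFN-β minimal promoter with NF-κB and AP-1 sites, read after 22 h, compounds dosed 0.05 nM–50 µM, inhibition scaled between agonist plus DMSO and reference-inhibitor wells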
# human TLR8 = human TLR8 (Homo sapiens (Human), UniProt Q9NR97); test: TLR8 inhibition reporter assay (HEK-Blue SEAP); conditions: read-out: TLR8 IC50; HEK-Blue human TLR8 cells, R848 15.9 μM;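 further: SEAP driven by IFN-β minimal promoter carrying NF-κB and AP-1 sites, compounds dosed 0.05 nM to 50 µM for 22 h, inhibition scaled between agonist-plus-DMSO and reference-inhibitor wells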
# human TLR8, sequence (Q9NR97 27-1041): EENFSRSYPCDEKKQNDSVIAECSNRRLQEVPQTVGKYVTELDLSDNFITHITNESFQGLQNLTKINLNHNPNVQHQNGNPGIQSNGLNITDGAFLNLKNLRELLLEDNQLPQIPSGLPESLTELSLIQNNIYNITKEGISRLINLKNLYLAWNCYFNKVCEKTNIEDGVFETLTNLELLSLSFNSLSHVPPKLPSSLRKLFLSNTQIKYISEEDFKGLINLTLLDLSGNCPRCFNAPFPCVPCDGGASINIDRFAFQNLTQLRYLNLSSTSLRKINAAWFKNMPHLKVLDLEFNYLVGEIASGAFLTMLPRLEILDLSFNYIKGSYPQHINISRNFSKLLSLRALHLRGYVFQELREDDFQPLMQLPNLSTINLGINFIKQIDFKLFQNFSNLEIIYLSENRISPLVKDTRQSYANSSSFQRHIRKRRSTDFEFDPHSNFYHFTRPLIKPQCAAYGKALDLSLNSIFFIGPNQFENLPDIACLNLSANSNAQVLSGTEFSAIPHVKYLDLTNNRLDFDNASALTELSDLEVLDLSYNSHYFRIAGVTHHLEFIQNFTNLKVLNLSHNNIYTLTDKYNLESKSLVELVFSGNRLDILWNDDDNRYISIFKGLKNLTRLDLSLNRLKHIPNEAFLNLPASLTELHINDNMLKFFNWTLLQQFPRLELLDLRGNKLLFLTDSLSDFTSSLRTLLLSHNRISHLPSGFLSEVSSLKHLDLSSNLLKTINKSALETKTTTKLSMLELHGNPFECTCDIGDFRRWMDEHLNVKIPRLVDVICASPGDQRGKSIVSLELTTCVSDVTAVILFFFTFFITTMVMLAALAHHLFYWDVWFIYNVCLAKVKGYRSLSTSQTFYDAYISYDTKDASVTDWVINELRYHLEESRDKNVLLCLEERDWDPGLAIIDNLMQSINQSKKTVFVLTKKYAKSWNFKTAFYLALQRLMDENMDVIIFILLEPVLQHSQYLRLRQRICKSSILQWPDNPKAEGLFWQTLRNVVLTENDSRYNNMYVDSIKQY
# human TLR7 = human TLR7 (Homo sapiens (Human), UniProt Q9NYK1); test: TLR7 inhibition reporter assay (HEK-Blue SEAP); type: cell-based; conditions: HEK-Blue human TLR7 cells, gardiquimod 7.5 μM
# human TLR7, sequence (Q9NYK1 27-1049): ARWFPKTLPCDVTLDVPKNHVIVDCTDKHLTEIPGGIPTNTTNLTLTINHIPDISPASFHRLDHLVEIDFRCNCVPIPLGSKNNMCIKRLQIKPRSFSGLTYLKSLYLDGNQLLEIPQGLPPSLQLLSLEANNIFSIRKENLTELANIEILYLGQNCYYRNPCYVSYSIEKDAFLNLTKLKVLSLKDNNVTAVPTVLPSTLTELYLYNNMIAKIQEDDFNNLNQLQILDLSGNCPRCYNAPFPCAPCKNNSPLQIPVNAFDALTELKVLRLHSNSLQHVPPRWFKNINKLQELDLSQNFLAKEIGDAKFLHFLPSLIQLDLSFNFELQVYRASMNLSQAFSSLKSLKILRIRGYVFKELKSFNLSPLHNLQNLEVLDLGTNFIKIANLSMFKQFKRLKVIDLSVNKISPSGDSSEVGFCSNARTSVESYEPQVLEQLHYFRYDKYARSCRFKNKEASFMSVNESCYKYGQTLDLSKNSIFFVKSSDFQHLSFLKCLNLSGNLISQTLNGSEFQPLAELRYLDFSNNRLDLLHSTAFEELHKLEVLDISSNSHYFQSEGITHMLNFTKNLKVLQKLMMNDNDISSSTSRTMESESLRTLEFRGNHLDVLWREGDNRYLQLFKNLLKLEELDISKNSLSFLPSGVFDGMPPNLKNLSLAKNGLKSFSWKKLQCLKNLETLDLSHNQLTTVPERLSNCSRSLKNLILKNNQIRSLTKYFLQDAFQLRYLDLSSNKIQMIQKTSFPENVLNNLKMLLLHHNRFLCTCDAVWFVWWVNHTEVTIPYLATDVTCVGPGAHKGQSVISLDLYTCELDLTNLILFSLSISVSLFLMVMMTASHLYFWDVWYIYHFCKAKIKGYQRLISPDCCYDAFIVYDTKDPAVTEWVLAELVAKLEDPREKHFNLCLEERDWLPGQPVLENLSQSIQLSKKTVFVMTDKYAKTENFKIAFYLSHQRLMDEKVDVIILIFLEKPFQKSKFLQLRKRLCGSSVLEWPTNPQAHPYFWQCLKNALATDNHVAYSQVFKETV
# human TLR9, sequence (Q9NR96 26-1032): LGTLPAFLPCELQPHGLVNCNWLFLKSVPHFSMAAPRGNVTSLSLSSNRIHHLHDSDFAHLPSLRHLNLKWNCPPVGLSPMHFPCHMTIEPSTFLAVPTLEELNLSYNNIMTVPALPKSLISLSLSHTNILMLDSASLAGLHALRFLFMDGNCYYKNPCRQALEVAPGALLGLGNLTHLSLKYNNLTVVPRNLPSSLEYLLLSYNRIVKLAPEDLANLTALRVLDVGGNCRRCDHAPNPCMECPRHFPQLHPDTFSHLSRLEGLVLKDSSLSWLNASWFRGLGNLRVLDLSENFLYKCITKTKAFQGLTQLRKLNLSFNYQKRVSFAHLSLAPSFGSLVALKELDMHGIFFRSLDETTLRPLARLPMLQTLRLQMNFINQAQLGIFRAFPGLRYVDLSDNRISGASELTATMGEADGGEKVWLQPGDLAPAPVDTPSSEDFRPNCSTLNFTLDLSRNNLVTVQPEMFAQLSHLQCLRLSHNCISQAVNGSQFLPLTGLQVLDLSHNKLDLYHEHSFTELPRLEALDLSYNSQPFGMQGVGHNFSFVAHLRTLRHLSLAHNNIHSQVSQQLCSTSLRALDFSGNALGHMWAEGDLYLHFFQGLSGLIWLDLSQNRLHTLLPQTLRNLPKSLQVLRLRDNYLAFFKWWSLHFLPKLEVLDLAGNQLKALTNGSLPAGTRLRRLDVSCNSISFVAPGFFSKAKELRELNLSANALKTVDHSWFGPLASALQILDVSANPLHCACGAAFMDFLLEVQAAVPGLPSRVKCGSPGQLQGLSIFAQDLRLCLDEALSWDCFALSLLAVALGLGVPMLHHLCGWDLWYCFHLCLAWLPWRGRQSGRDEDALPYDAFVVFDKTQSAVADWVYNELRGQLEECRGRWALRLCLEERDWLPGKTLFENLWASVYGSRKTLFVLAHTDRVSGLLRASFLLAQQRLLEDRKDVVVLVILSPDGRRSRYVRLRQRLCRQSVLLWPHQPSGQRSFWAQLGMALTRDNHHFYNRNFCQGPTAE
SMILES,pIC50 (human TLR9),pIC50 (human TLR8),pIC50 (human TLR7)
Cc1c(-c2[nH]c3ccc(N4CCN(C(=O)CN(C)C(C)(C)C)[C@@H](C)C4)nc3c2C(C)C)cn2ncnc2c1C [Example 904],4.83,8.38,9.00
CCN(C)CCC(=O)N1C[C@H](C)N(c2ccc3[nH]c(-c4cn5ncnc5c(C)c4C)c(C(C)C)c3n2)C[C@H]1C [Example 906],5.11,9.17,9.41
Cc1c(-c2[nH]c3ccc(N4C[C@@H](C)N(C(=O)CCN5CCOCC5)C[C@@H]4C)nc3c2C(C)C)cn2ncnc2c1C [Example 907],< 4.30,9.35,9.12
Cc1c(-c2[nH]c3ccc(N4C[C@@H](C)N(C(=O)CCN5CCC(F)C5)C[C@@H]4C)nc3c2C(C)C)cn2ncnc2c1C (stereo partly drawn) [Example 909],5.17,9.04,9.27
Cc1c(-c2[nH]c3ccc(N4C[C@@H](C)N(C(=O)CN(C(C)C)C(C)C)C[C@@H]4C)nc3c2C(C)C)cn2ncnc2c1C [Example 910],5.27,9.07,9.17
Cc1c(-c2[nH]c3ccc(N4C[C@@H](C)N(C(=O)CN(C)C(C)(C)C)C[C@@H]4C)nc3c2C(C)C)cn2ncnc2c1C [Example 911],5.15,8.82,9.17
CCN(CC(=O)N1C[C@H](C)N(c2ccc3[nH]c(-c4cn5ncnc5c(C)c4C)c(C(C)C)c3n2)C[C@H]1C)C(C)C [Example 912],5.03,8.66,9.01
Cc1c(-c2[nH]c3ccc(N4[C@@H]5CC[C@H]4CN(C(=O)CCN(C)C)C5)nc3c2C(C)C)cn2ncnc2c1C [Example 913],5.05,8.74,9.00
Cc1c(-c2[nH]c3ccc(N4C[C@@H](C)N(C(=O)CCN(C)C(C)(C)C)C[C@@H]4C)nc3c2C(C)C)cn2ncnc2c1C [Example 914],5.22,9.03,9.14
Cc1c(-c2[nH]c3ccc(N4[C@@H]5CC[C@H]4CN(C(=O)CN4CC6(COC6)C4)C5)nc3c2C(C)C)cn2ncnc2c1C [Example 920],4.92,8.23,8.59
Cc1c(-c2[nH]c3ccc(N4[C@@H]5CC[C@H]4CN(C(=O)CN4CCCC4)C5)nc3c2C(C)C)cn2ncnc2c1C [Example 921],5.28,8.47,9.21
CCN(C)CC(=O)N1C[C@H]2CC[C@@H](C1)N2c1ccc2[nH]c(-c3cn4ncnc4c(C)c3C)c(C(C)C)c2n1 [Example 922],5.03,8.68,9.26
Cc1c(-c2[nH]c3ccc(N4[C@@H]5CC[C@H]4CN(C(=O)CN(C)C(C)C)C5)nc3c2C(C)C)cn2ncnc2c1C [Example 923],5.18,8.44,8.92
Cc1c(-c2[nH]c3ccc(N4[C@@H]5CC[C@H]4CN(C(=O)CN(C)C(C)(C)C)C5)nc3c2C(C)C)cn2ncnc2c1C [Example 924],5.14,8.31,8.77
Cc1c(-c2[nH]c3ccc(N4[C@@H]5CC[C@H]4CN(C(=O)CN(CCO)C(C)(C)C)C5)nc3c2C(C)C)cn2ncnc2c1C [Example 925],5.00,8.04,9.10
Cc1c(-c2[nH]c3ccc(N4C[C@@H](C)N(C(=O)CN(C)C(C)(C)C)[C@H](C)C4)nc3c2C(C)C)cn2ncnc2c1C [Example 926],5.52,8.52,8.48
CCN(C)CC(=O)N1[C@H](C)CN(c2ccc3[nH]c(-c4cn5ncnc5c(C)c4C)c(C(C)C)c3n2)C[C@H]1C [Example 927],5.36,8.43,8.54
Cc1c(-c2[nH]c3ccc(N4C[C@@H](C)N(C(=O)CN5CCCC5)[C@H](C)C4)nc3c2C(C)C)cn2ncnc2c1C [Example 928],5.44,8.16,8.82
Cc1c(-c2[nH]c3ccc(N4C[C@@H](C)N(C(=O)CN(CCO)C(C)(C)C)[C@H](C)C4)nc3c2C(C)C)cn2ncnc2c1C [Example 930],4.61,8.13,7.66
CCN(C)CC(=O)N1C[C@@H](C)N(c2ccc3[nH]c(-c4cn5ncnc5c(C)c4C)c(C(C)C)c3n2)C[C@@H]1C [Example 937],4.85,7.85,9.28
Cc1c(-c2[nH]c3ccc(N4C[C@H](C)N(C(=O)CN(C)C(C)C)C[C@H]4C)nc3c2C(C)C)cn2ncnc2c1C [Example 938],5.07,8.31,8.59
Cc1c(-c2[nH]c3ccc(N4C[C@H](C)N(C(=O)CN(C)C(C)(C)C)C[C@H]4C)nc3c2C(C)C)cn2ncnc2c1C [Example 939],4.93,8.01,8.82
CCN(C)CC(=O)N1CCN(c2ccc3[nH]c(-c4cn5ncnc5c(C)c4N)c(C(C)C)c3n2)C[C@H]1C [Example 942],4.92,8.47,9.30
Cc1c(-c2[nH]c3ccc(N4CCN(C(=O)CN(C)C(C)C)[C@H](C)C4)nc3c2C(C)C)cn2ncnc2c1C [Example 943],5.00,8.96,8.96
Cc1c(-c2[nH]c3ccc(N4CCN(C(=O)CN(C)C(C)(C)C)[C@H](C)C4)nc3c2C(C)C)cn2ncnc2c1C [Example 944],4.77,8.31,8.51

# Results, then the compound that gave them:
pIC50 (human TLR9),pIC50 (human TLR8),pIC50 (human TLR7),SMILES
5.01,8.77,9.00,Cc1c(-c2[nH]c3ccc(N4CCN(C(=O)CN5CCCC5)[C@@H](C)C4)nc3c2C(C)C)cn2ncnc2c1C [Example 899]
4.81,8.85,8.96,Cc1c(-c2[nH]c3ccc(N4CCN(C(=O)CN5CC6(COC6)C5)[C@@H](C)C4)nc3c2C(C)C)cn2ncnc2c1C [Example 900]
4.88,9.82,9.14,Cc1c(-c2[nH]c3ccc(N4CCN(C(=O)CN5CC6(COC6)C5)C[C@@H]4C)nc3c2C(C)C)cn2ncnc2c1C [Example 901]
4.80,8.85,8.96,CCN(CC)CC(=O)N1CCN(c2ccc3[nH]c(-c4cn5ncnc5c(C)c4C)c(C(C)C)c3n2)[C@@H](C)C1 [Example 902]
4.45,8.39,8.52,Cc1c(-c2[nH]c3ccc(N4CCN(C(=O)CN(C(C)C)C(C)C)C[C@@H]4C)nc3c2C(C)C)cn2ncnc2c1C [Example 903]
4.92,9.09,9.29,Cc1c(-c2[nH]c3ccc(N4CCN(C(=O)CN(C)C(C)(C)C)C[C@@H]4C)nc3c2C(C)C)cn2ncnc2c1C [Example 905]
5.19,9.59,9.05,Cc1c(-c2[nH]c3ccc(N4C[C@@H](C)N(C(=O)CCN5CC6(COC6)C5)C[C@@H]4C)nc3c2C(C)C)cn2ncnc2c1C [Example 908]
4.95,9.00,8.64,Cc1c(-c2[nH]c3ccc(N4CCN(C(=O)CN5CC(C)(C)C5)CC4)nc3c2C(C)C)cn2ncnc2c1C [Example 915]
4.84,7.96,[…],COC1CN(CC(=O)N2CCN(c3ccc4[nH]c(-c5cn6ncnc6c(C)c5C)c(C(C)C)c4n3)CC2)C1 [Example 916]
4.86,9.00,7.64,Cc1c(-c2[nH]c3ccc(N4CCN(C(=O)CN5CCC(F)(F)C5)CC4)nc3c2C(C)C)cn2ncnc2c1C [Example 919]
5.29,8.41,8.59,Cc1c(-c2[nH]c3ccc(N4C[C@@H](C)N(C(=O)CN5CC6(COC6)C5)[C@H](C)C4)nc3c2C(C)C)cn2ncnc2c1C [Example 929]
4.83,8.41,8.60,Cc1c(-c2[nH]c3ccc(N4CCN(C(=O)CN5CC6(COC6)C5)C[C@H]4C)nc3c2C(C)C)cn2ncnc2c1C [Example 931]
4.84,8.00,9.18,CCN(C)CC(=O)N1CCN(c2ccc3[nH]c(-c4cn5ncnc5c(C)c4C)c(C(C)C)c3n2)[C@@H](C)C1 [Example 932]
4.73,7.74,9.20,Cc1c(-c2[nH]c3ccc(N4CCN(C(=O)CN(C)C(C)C)C[C@H]4C)nc3c2C(C)C)cn2ncnc2c1C [Example 933]
5.01,8.07,9.07,Cc1c(-c2[nH]c3ccc(N4CCN(C(=O)CN(C)C(C)(C)C)C[C@H]4C)nc3c2C(C)C)cn2ncnc2c1C [Example 934]
5.25,8.54,9.32,Cc1c(-c2[nH]c3ccc(N4C[C@H](C)N(C(=O)CN5CC6(COC6)C5)C[C@H]4C)nc3c2C(C)C)cn2ncnc2c1C [Example 935]
5.33,8.46,9.25,Cc1c(-c2[nH]c3ccc(N4C[C@H](C)N(C(=O)CN5CCCC5)C[C@H]4C)nc3c2C(C)C)cn2ncnc2c1C [Example 936]
5.08,9.18,8.77,Cc1c(-c2[nH]c3ccc(N4CCN(C(=O)CN5CC6(COC6)C5)[C@H](C)C4)nc3c2C(C)C)cn2ncnc2c1C [Example 940]
5.14,9.18,9.18,Cc1c(-c2[nH]c3ccc(N4CCN(C(=O)CN5CCCC5)[C@H](C)C4)nc3c2C(C)C)cn2ncnc2c1C [Example 941]
5.11,9.03,8.32,Cc1c(-c2[nH]c3ccc(N4CCN(C(=O)CC(C)(C)N5CC6(COC6)C5)CC4)nc3c2C(C)C)cn2ncnc2c1C [Example 945]
5.05,8.74,8.85,Cc1c(-c2[nH]c3ccc(N4CCN(C(=O)CN5CC(C)(O)C5)CC4)nc3c2C(C)C)cn2ncnc2c1C [Example 946]
